Experimental data as given in ChEMBL document CHEMBL1201862, “PubChem BioAssay data set” (2004).
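Values below derive from 48-hour exposures of cells grown in 96-well plates, with endpoints linearly interpolated between the two concentrations bracketing the appropriate inhibition level. The concentration for 50% growth inhibition is given as GI50.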 Calls of active or inactive are those of the source. Cut-off read from the data, not from the text of the source: active = GI50 up to about 1.1 µM and inactive = higher.

Columns and labels:
Assay in all cases: growth of human tumour cells (NCI), 48 h
SK-MEL-28 = test system: SK-MEL-28
SNB-19 = test system: SNB-19
OVCAR-4 = test system: OVCAR-4
LOX IMVI = test system: LOX IMVI
HT-29 = test system: HT-29
OVCAR-8 = test system: OVCAR-8
ACHN = test system: ACHN
NCI/ADR-RES = test system: NCI/ADR-RES
MDA-MB-231 = test system: MDA-MB-231
A549 = test system: A549
MDA-N = test system: MDA-N
MOLT-4 = test system: MOLT-4
SK-OV-3 = test system: SK-OV-3
HOP-92 = test system: HOP-92
PC-3 = test system: PC-3
OVCAR-5 = test system: OVCAR-5
K562 = test system: K562
HL-60 = test system: HL-60
SR = test system: SR
NCI-H23 = test system: NCI-H23

## Cc1ccc(-c2c(C#N)c(-c3ccccc3)n(NS(=O)(=O)c3ccc(C)cc3)c(=O)c2C#N)cc1
SK-MEL-28
  GI50: 52.1 µM (inactive)
SNB-19
  GI50: 50.8 µM (inactive)
OVCAR-4
  GI50: 43.5 µM (inactive)
LOX IMVI
  GI50: 26.7 µM (inactive)
HT-29
  GI50: 69.2 µM (inactive)
OVCAR-8
  GI50: 41.9 µM (inactive)
ACHN
  GI50: 38 µM (inactive)
NCI/ADR-RES
  GI50: 96.4 µM (inactive)
MDA-MB-231
  GI50: > 100 µM (inactive)
A549
  GI50: 55.8 µM (inactive)
MDA-N
  GI50: 71.8 µM (inactive)
MOLT-4
  GI50: 19.8 µM (inactive)
SK-OV-3
  GI50: 96.6 µM (inactive)
HOP-92
  GI50: 11.4 µM (inactive)
PC-3
  GI50: 36.6 µM (inactive)
OVCAR-5
  GI50: > 100 µM (inactive)
K562
  GI50: 48 µM (inactive)

## O=C(CCC(=O)Nc1ccc(Cl)cc1)CC(=O)c1ccc(F)cc1
SK-MEL-28
  GI50: > 100 µM (inactive)
HL-60
  GI50: > 100 µM (inactive)
SNB-19
  GI50: > 100 µM (inactive)
OVCAR-4
  GI50: > 100 µM (inactive)
LOX IMVI
  GI50: > 100 µM (inactive)
HT-29
  GI50: > 100 µM (inactive)
OVCAR-8
  GI50: > 100 µM (inactive)
ACHN
  GI50: > 100 µM (inactive)
SR
  GI50: > 100 µM (inactive)
A549
  GI50: > 100 µM (inactive)
MOLT-4
  GI50: > 100 µM (inactive)
SK-OV-3
  GI50: > 100 µM (inactive)
HOP-92
  GI50: > 100 µM (inactive)
NCI-H23
  GI50: > 100 µM (inactive)
OVCAR-5
  GI50: > 100 µM (inactive)
K562
  GI50: > 100 µM (inactive)

## Nc1nc(Cl)c2nnn(CC3CCC(CO)C3)c2n1 (stereo unspecified)
SK-MEL-28
  GI50: > 100 µM (inactive)
SNB-19
  GI50: > 100 µM (inactive)
OVCAR-4
  GI50: > 100 µM (inactive)
LOX IMVI
  GI50: > 100 µM (inactive)
ACHN
  GI50: > 100 µM (inactive)
NCI/ADR-RES
  GI50: > 100 µM (inactive)
MDA-MB-231
  GI50: > 100 µM (inactive)
A549
  GI50: > 100 µM (inactive)
MDA-N
  GI50: > 100 µM (inactive)
SK-OV-3
  GI50: > 100 µM (inactive)
HOP-92
  GI50: > 100 µM (inactive)
PC-3
  GI50: > 100 µM (inactive)
OVCAR-5
  GI50: > 100 µM (inactive)
K562
  GI50: > 100 µM (inactive)

## O=C1C2=C(SCCS2)C(=O)c2ccccc21
SK-MEL-28
  GI50: 1.85 µM (inactive)
HL-60
  GI50: 2.31 µM (inactive)
SNB-19
  GI50: 1.54 µM (inactive)
OVCAR-4
  GI50: 1.65 µM (inactive)
LOX IMVI
  GI50: 0.902 µM (active)
HT-29
  GI50: 2.18 µM (inactive)
OVCAR-8
  GI50: 1.67 µM (inactive)
ACHN
  GI50: 1.66 µM (inactive)
SR
  GI50: 1.2 µM (inactive)
A549
  GI50: 1.9 µM (inactive)
MOLT-4
  GI50: 2.23 µM (inactive)
SK-OV-3
  GI50: 1.73 µM (inactive)
HOP-92
  GI50: 1.68 µM (inactive)
NCI-H23
  GI50: 1.85 µM (inactive)
OVCAR-5
  GI50: 1.83 µM (inactive)
K562
  GI50: 1.77 µM (inactive)

## O=C1CCCC2=C1CC1=C(CCCC1=O)N2c1cccc2ccccc12
SK-MEL-28
  GI50: > 100 µM (inactive)
HL-60
  GI50: 17 µM (inactive)
SNB-19
  GI50: 75 µM (inactive)
OVCAR-4
  GI50: > 100 µM (inactive)
LOX IMVI
  GI50: > 100 µM (inactive)
HT-29
  GI50: > 100 µM (inactive)
OVCAR-8
  GI50: 69.2 µM (inactive)
ACHN
  GI50: > 100 µM (inactive)
NCI/ADR-RES
  GI50: > 100 µM (inactive)
SR
  GI50: > 100 µM (inactive)
A549
  GI50: > 100 µM (inactive)
MOLT-4
  GI50: 78 µM (inactive)
SK-OV-3
  GI50: > 100 µM (inactive)
HOP-92
  GI50: 33 µM (inactive)
PC-3
  GI50: > 100 µM (inactive)
NCI-H23
  GI50: 52.5 µM (inactive)
OVCAR-5
  GI50: > 100 µM (inactive)
K562
  GI50: 44 µM (inactive)

## CCCCCCCCCCCCCCCCCCNc1ccn(C2OC(COP(=O)(O)OCC3CCC(n4cnc5c(=O)[nH]cnc54)O3)C(O)C2O)c(=O)n1 (stereo unspecified)
SK-MEL-28
  GI50: > 100 µM (inactive)
SNB-19
  GI50: > 100 µM (inactive)
OVCAR-4
  GI50: > 100 µM (inactive)
LOX IMVI
  GI50: > 100 µM (inactive)
HT-29
  GI50: > 100 µM (inactive)
OVCAR-8
  GI50: > 100 µM (inactive)
ACHN
  GI50: > 100 µM (inactive)
NCI/ADR-RES
  GI50: > 100 µM (inactive)
A549
  GI50: > 100 µM (inactive)
MDA-N
  GI50: > 100 µM (inactive)
MOLT-4
  GI50: > 100 µM (inactive)
SK-OV-3
  GI50: > 100 µM (inactive)
HOP-92
  GI50: > 100 µM (inactive)
PC-3
  GI50: 14.2 µM (inactive)
NCI-H23
  GI50: > 100 µM (inactive)
OVCAR-5
  GI50: 35.4 µM (inactive)

## Cc1cc(CNC(=O)OCc2ccccc2)c(C)c2c1Oc1ccccc1O2
SK-MEL-28
  GI50: > 100 µM (inactive)
SNB-19
  GI50: 25.5 µM (inactive)
OVCAR-4
  GI50: 21.3 µM (inactive)
LOX IMVI
  GI50: > 100 µM (inactive)
HT-29
  GI50: 20.2 µM (inactive)
OVCAR-8
  GI50: 17.1 µM (inactive)
ACHN
  GI50: 43.8 µM (inactive)
NCI/ADR-RES
  GI50: 19 µM (inactive)
MDA-MB-231
  GI50: 6.67 µM (inactive)
SR
  GI50: > 100 µM (inactive)
A549
  GI50: 20.9 µM (inactive)
MOLT-4
  GI50: > 100 µM (inactive)
SK-OV-3
  GI50: 17.1 µM (inactive)
HOP-92
  GI50: 1.26 µM (inactive)
PC-3
  GI50: 43.4 µM (inactive)
NCI-H23
  GI50: 24.3 µM (inactive)
OVCAR-5
  GI50: 43.4 µM (inactive)
K562
  GI50: > 100 µM (inactive)

## COC1OC(OC)C2C(c3c(C)cc(C)cc3C)=NOC12 (stereo unspecified)
SK-MEL-28
  GI50: > 100 µM (inactive)
HL-60
  GI50: > 100 µM (inactive)
SNB-19
  GI50: > 100 µM (inactive)
OVCAR-4
  GI50: > 100 µM (inactive)
LOX IMVI
  GI50: > 100 µM (inactive)
HT-29
  GI50: > 100 µM (inactive)
OVCAR-8
  GI50: > 100 µM (inactive)
ACHN
  GI50: > 100 µM (inactive)
SR
  GI50: > 100 µM (inactive)
A549
  GI50: > 100 µM (inactive)
MOLT-4
  GI50: > 100 µM (inactive)
SK-OV-3
  GI50: > 100 µM (inactive)
HOP-92
  GI50: > 100 µM (inactive)
NCI-H23
  GI50: > 100 µM (inactive)
OVCAR-5
  GI50: > 100 µM (inactive)
K562
  GI50: > 100 µM (inactive)
